Results published in US5942489A, “HGH-RH(1-29)NH2 analogues having antagonistic activity” (The Administrators of the Tulane Educational Fund, priority 1996, dated 1999).
Where a SMILES comes first, the peptide text is derived from it. Bridges are numbered along the chain shown (N, C = ends). [ ]: non-standard residue; d: D form. The star is where a group is joined. Phe(4-Cl) = N[C@@H](Cc1ccc(Cl)cc1)C(=O)O; Cit = NC(=O)NCCC[C@H](N)C(=O)O; Agmatine = N=C(N)NCCCCN*; Nle = CCCC[C@H](N)C(=O)O; Abu = CC[C@H](N)C(=O)O; PhAc = O=C(Cc1ccccc1)*

biological target: T1, rat pituitary GH-RH receptors (Rattus norvegicus, UniProt Q02644); experiment: GH-RH radioreceptor binding assay, competition with labelled [His1,Nle27]hGH-RH(1-32)NH2; details: rat anterior pituitary membrane homogenates; read-out: Ki values, K
T1 construct: from tissue; host or cells: anterior pituitary of male Sprague-Dawley rats, crude membranes
T1 sequence (Q02644 23-464): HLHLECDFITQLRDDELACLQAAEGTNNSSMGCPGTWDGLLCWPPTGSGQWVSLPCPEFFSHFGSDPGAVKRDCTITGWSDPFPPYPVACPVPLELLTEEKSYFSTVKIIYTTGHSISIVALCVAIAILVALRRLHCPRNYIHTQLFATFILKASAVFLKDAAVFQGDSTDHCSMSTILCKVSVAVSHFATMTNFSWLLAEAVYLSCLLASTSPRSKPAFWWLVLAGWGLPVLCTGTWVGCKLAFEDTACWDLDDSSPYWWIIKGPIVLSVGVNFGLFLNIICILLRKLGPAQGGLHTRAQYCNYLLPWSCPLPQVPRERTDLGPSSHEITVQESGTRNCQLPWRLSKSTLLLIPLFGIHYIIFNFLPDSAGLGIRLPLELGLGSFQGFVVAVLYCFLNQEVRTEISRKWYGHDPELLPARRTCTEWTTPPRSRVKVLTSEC
Experimental: GH-RH Binding Assay. A sensitive radioreceptor binding assay was developed to determine the binding characteristics of the antagonists of GH-RH (G. Halmos, A. V. Schally et al., Receptor 3, 87-97, 1993), hereby incorporated by reference. The assay is based on binding of labelled [His^1, Nle^27 ]hGH-RH(1-32)NH2 to rat anterior pituitary membrane homogenates. Iodinated derivatives of [His^1, Nle^27 ]hGH-RH(1-32)NH2 are prepared by the chloramine-T method (F. C. Greenwood et al., Biochemistry 89:114-123, 1963), hereby incorporated by reference. Pituitaries from male Sprague-Dawley rats (250-300 g) are used to prepare crude membranes. For saturation binding analyses, membrane homogenates are incubated with at least 6 concentrations of [His^1,125I-Tyr^10,Nle^27 ]hGH-RH(1-32)NH2, ranging from 0.005 to 0.35 nM in the presence or absence of excess unlabelled peptide (1 μM).
The pellet is counted for radioactivity in a γ-counter. The affinities of the antagonist peptides tested to rat pituitary GH-RH receptors are determined in competitive binding experiments. The final binding affinities are estimated by Ki (dissociation constant of the inhibitor-receptor complex) and are determined by the Ligand PC computer program of Munson and Rodbard as modified by McPherson. Relative affinities compared to [Ac-Tyr^1, D-Arg^2 ]hGH-RH(1-29)NH2, the Standard antagonist, are calculated as the ratio of Ki of the tested GH-RH antagonist to the Ki of the Standard antagonist.

Point of comparison: CCCC[C@H](NC(=O)[C@@H](NC(=O)[C@H](CC(=O)O)NC(=O)[C@H](CCC(N)=O)NC(=O)[C@H](CC(C)C)NC(=O)[C@H](CC(C)C)NC(=O)[C@H](CCCCN)NC(=O)[C@H](CCCNC(=N)N)NC(=O)[C@H](C)NC(=O)[C@H](CO)NC(=O)[C@H](CC(C)C)NC(=O)[C@H](CCC(N)=O)NC(=O)[C@H](C)NC(=O)[C@H](CC(C)C)NC(=O)[C@@H](NC(=O)[C@H](CCCCN)NC(=O)[C@H](CCCNC(=N)N)NC(=O)[C@H](Cc1ccc(O)cc1)NC(=O)[C@H](CO)NC(=O)[C@H](CC(N)=O)NC(=O)[C@@H](NC(=O)[C@H](Cc1ccc(Cl)cc1)NC(=O)[C@@H](NC(=O)[C@H](C)NC(=O)[C@H](CC(=O)O)NC(=O)[C@@H](CCCNC(=N)N)NC(=O)[C@H](Cc1ccc(O)cc1)NC(=O)Cc1ccccc1)[C@@H](C)CC)[C@@H](C)O)C(C)C)[C@@H](C)CC)C(=O)N[C@@H](CC(=O)O)C(=O)NCCCCNC(=N)N [Peptide 5, [PhAc^0,D-Arg^2,Phe(pCl)^6,Ala^15,Nle^27,Asp^28]hGH-RH(1-28)Agm] (PhAc-Y[dR]DAI[Phe(4-Cl)]TNSYRKVLAQLSARKLLQDI[Nle]D-Agmatine), Ki 0.096 nM. Against it:
- CCCC[C@H](NC(=O)[C@@H](NC(=O)[C@H](CC(=O)O)NC(=O)[C@H](CCC(N)=O)NC(=O)[C@H](CC(C)C)NC(=O)[C@H](CC(C)C)NC(=O)[C@H](CCCCN)NC(=O)[C@H](CCCNC(=N)N)NC(=O)[C@H](C)NC(=O)[C@H](CO)NC(=O)[C@H](CC(C)C)NC(=O)[C@H](CCC(N)=O)NC(=O)[C@H](CC)NC(=O)[C@H](CC(C)C)NC(=O)[C@@H](NC(=O)[C@H](CCCCN)NC(=O)[C@H](CCCNC(=N)N)NC(=O)[C@H](Cc1ccc(O)cc1)NC(=O)[C@H](CO)NC(=O)[C@H](CC)NC(=O)[C@@H](NC(=O)[C@H](Cc1ccc(Cl)cc1)NC(=O)[C@@H](NC(=O)[C@H](C)NC(=O)[C@H](CC(=O)O)NC(=O)[C@@H](CCCNC(=N)N)NC(=O)[C@H](Cc1ccc(O)cc1)NC(=O)Cc1ccccc1)[C@@H](C)CC)[C@@H](C)O)C(C)C)[C@@H](C)CC)C(=O)N[C@@H](CO)C(=O)N[C@@H](CCCNC(N)=O)C(N)=O [Peptide 3, [PhAc^0,D-Arg^2,Phe(pCl)^6,Abu^8,15,Nle^27,Cit^29]hGH-RH(1-29)-NH2] (PhAc-Y[dR]DAI[Phe(4-Cl)]T[Abu]SYRKVL[Abu]QLSARKLLQDI[Nle]S[Cit]-NH2) — 3.1-fold higher, 0.301 ± 0.14 nM
- CCCC[C@H](NC(=O)[C@@H](NC(=O)[C@H](CC(=O)O)NC(=O)[C@H](CCC(N)=O)NC(=O)[C@H](CC(C)C)NC(=O)[C@H](CC(C)C)NC(=O)[C@@H]1CCCCNC(=O)CC[C@H](NC(=O)[C@H](CCC(N)=O)NC(=O)[C@H](C)NC(=O)[C@H](CC(C)C)NC(=O)[C@@H](NC(=O)[C@H](CCCCN)NC(=O)[C@H](CCCNC(=N)N)NC(=O)[C@H](Cc2ccc(O)cc2)NC(=O)[C@H](CO)NC(=O)[C@H](CO)NC(=O)[C@@H](NC(=O)[C@H](Cc2ccc(Cl)cc2)NC(=O)[C@@H](NC(=O)[C@H](C)NC(=O)[C@H](CC(=O)O)NC(=O)[C@@H](CCCNC(=N)N)NC(=O)[C@H](Cc2ccc(O)cc2)NC(=O)Cc2ccccc2)[C@@H](C)CC)[C@@H](C)O)C(C)C)C(=O)N[C@@H](CO)C(=O)N[C@@H](C)C(=O)N[C@@H](CCCNC(=N)N)C(=O)N1)[C@@H](C)CC)C(=O)N[C@@H](CO)C(=O)N[C@@H](CCCNC(=N)N)C(N)=O [Peptide 18, cyclo^17,21 [PhAc^0,D-Arg^2,Phe(pCl)^6,Ser^8,Ala^15,Glu^17,Nle^27]hGH-RH(1-29)NH2] (PhAc-Y[dR]DAI[Phe(4-Cl)]TSSYRKVLAQESARKLLQDI[Nle]SR-NH2; lactam 17-21) — 1.7-fold higher, 0.159 ± 0.04 nM
- CCCC[C@H](NC(=O)[C@@H](NC(=O)[C@H](CC(=O)O)NC(=O)[C@H](CCC(N)=O)NC(=O)[C@H](CC(C)C)NC(=O)[C@H](CC(C)C)NC(=O)[C@H](CCCCN)NC(=O)[C@H](CCCNC(=N)N)NC(=O)[C@H](C)NC(=O)[C@H](CO)NC(=O)[C@H](CC(C)C)NC(=O)[C@H](CCC(N)=O)NC(=O)[C@H](CC)NC(=O)[C@H](CC(C)C)NC(=O)[C@@H](NC(=O)[C@H](CCCCN)NC(=O)[C@H](CCCNC(=N)N)NC(=O)[C@H](Cc1ccc(O)cc1)NC(=O)[C@H](CO)NC(=O)[C@H](CC(N)=O)NC(=O)[C@@H](NC(=O)[C@H](Cc1ccc(Cl)cc1)NC(=O)[C@@H](NC(=O)[C@H](C)NC(=O)[C@H](CC(=O)O)NC(=O)[C@@H](CCCNC(=N)N)NC(=O)[C@H](Cc1ccc(O)cc1)NC(=O)Cc1ccccc1)[C@@H](C)CC)[C@@H](C)O)C(C)C)[C@@H](C)CC)C(=O)N[C@@H](CO)C(=O)NCCCCNC(=N)N [Peptide 8, [PhAc^0,D-Arg^2,Phe(pCl)^6,Abu^15,Nle^27]hGH-RH(1-28)Agm] (PhAc-Y[dR]DAI[Phe(4-Cl)]TNSYRKVL[Abu]QLSARKLLQDI[Nle]S-Agmatine) — 6-fold lower, 0.0159 ± 0.01 nM
- CCCC[C@H](NC(=O)[C@@H](NC(=O)[C@H](CC(=O)O)NC(=O)[C@H](CCC(N)=O)NC(=O)[C@H](CC(C)C)NC(=O)[C@H](CC(C)C)NC(=O)[C@H](CCCCN)NC(=O)[C@H](CCCNC(=N)N)NC(=O)[C@H](C)NC(=O)[C@H](CO)NC(=O)[C@H](CC(C)C)NC(=O)[C@H](CCC(N)=O)NC(=O)[C@H](C)NC(=O)[C@H](CC(C)C)NC(=O)[C@@H](NC(=O)[C@H](CCCCN)NC(=O)[C@H](CCCNC(=N)N)NC(=O)[C@H](Cc1ccc(O)cc1)NC(=O)[C@H](CO)NC(=O)[C@H](CC)NC(=O)[C@@H](NC(=O)[C@H](Cc1ccc(Cl)cc1)NC(=O)[C@@H](NC(=O)[C@H](C)NC(=O)[C@H](CC(=O)O)NC(=O)[C@@H](CCCNC(=N)N)NC(=O)[C@H](Cc1ccc(O)cc1)NC(=O)Cc1ccccc1)[C@@H](C)CC)[C@@H](C)O)C(C)C)[C@@H](C)CC)C(=O)N[C@@H](CO)C(=O)N[C@@H](CCCNC(=N)N)C(N)=O [Peptide 11, [PhAc^0,D-Arg^2,Phe(pCl)^6,Abu^8,Ala^15,Nle^27],hGH-RH(1-29)NH2] (PhAc-Y[dR]DAI[Phe(4-Cl)]T[Abu]SYRKVLAQLSARKLLQDI[Nle]SR-NH2) — 1.6-fold lower, 0.059 ± 0.001 nM
- CCCC[C@H](NC(=O)[C@@H](NC(=O)[C@@H]1CCC(=O)NCCCC[C@H](NC(=O)[C@H](CCCNC(=N)N)NC(=O)[C@H](C)NC(=O)[C@H](CO)NC(=O)[C@H](CC(C)C)NC(=O)[C@H](CCC(N)=O)NC(=O)[C@H](C)NC(=O)[C@H](CC(C)C)NC(=O)[C@@H](NC(=O)[C@H]2CCCCNC(=O)CC[C@H](NC(=O)[C@@H](NC(=O)[C@H](Cc3ccc(Cl)cc3)NC(=O)[C@@H](NC(=O)[C@H](C)NC(=O)[C@H](CC(=O)O)NC(=O)[C@@H](CCCNC(=N)N)NC(=O)[C@H](Cc3ccc(O)cc3)NC(=O)Cc3ccccc3)[C@@H](C)CC)[C@@H](C)O)C(=O)N[C@@H](CO)C(=O)N[C@@H](Cc3ccc(O)cc3)C(=O)N[C@@H](CCCNC(=N)N)C(=O)N2)C(C)C)C(=O)N[C@@H](CC(C)C)C(=O)N[C@@H](CC(C)C)C(=O)N[C@@H](CCC(N)=O)C(=O)N1)[C@@H](C)CC)C(=O)N[C@@H](CO)C(=O)N[C@@H](CCCNC(=N)N)C(N)=O [Peptide 23, cyclo^8,12; 21,25 [[PhAc^0,D-Arg^2,Phe(pCl)^6,Glu^8,25,D-Lys^12,Ala^15,Nle^27]hGH-RH(1-29)-NH2] (PhAc-Y[dR]DAI[Phe(4-Cl)]TESYR[dK]VLAQLSARKLLQEI[Nle]SR-NH2; lactam 8-12, 21-25) — 4.8-fold higher, 0.456 nM
